Laboratory results taken from patent US20130116227A1, “BIARYL AMIDE DERIVATIVE OR PHARMACEUTICALLY ACCEPTABLE SALT THEREOF” (DAINIPPON SUMITOMO PHARMA CO., LTD., priority 2010, published 2013).

system: normal rat; assay: Antagonism (in vivo antagonist activity) against reduction of Na/K ratios in DOCA induced urine of normal rat; conditions: oral administration 30 minutes before DOCA 0.3 mg/kg s.c., urine collected for 8 hours
Experimental: Antagonism (In Vivo Antagonist Activity) Against Reduction of Na/K Ratios in Deoxycorticosterone Acetate (DOCA) Induced Urine of Normal Rat
A rat was encaged in a metabolism cage and was collected urine for 8 hours. When a test article was orally administered, it was administered in 5 ml/kg of dosage solution amounts using 0.5% methylcellulose as a solvent. DOCA was dissolved in corn oil in 0.3 mg/ml, and was subcutaneously administered in 1 ml/kg (0.3 mg/kg). Administration timing for a test article was 30 minutes before DOCA administration. 20 ml/kg of Solution amounts of saline was orally administered when administering DOCA in order to stabilize urine amounts and to secure enough amounts. Collected urine was analyzed its amounts, and then electrolyte (sodium: Na^+ and potassium: K^+) concentrations in urine were analyzed by an automatic biochemical analyzer (manufactured by JEOL Ltd., JCA-BM1650) to calculate ratios of Na^+ and K^+.

Row | SMILES | suppression of reduction of Na/K ratios in DOCA-induced urine
1 | COC(=O)[C@@H]1CC2=CC(=O)CC[C@]2(C)[C@@]23O[C@@H]2C[C@@]2(C)[C@@H](CC[C@@]24CCC(=O)O4)[C@H]13 [eplerenone] | suppressed reduction of Na/K ratios in DOCA-induced urine in a dose-dependent manner

biological target: T1, aldosterone receptor (Rattus norvegicus, UniProt P22199); assay: Binding inhibition test for aldosterone receptor ([3H]aldosterone, rat renal soluble fraction); conditions: [3H]aldosterone 2 nM, rat renal soluble fraction, in the presence of 2 μM RU-486, 4° C. about 18 hours; read-out: MR IC50
T1 construct: centrifuged at 105,000 g for 30 minutes, and then a supernatant was collected as a renal soluble fraction; from tissue; host or cells: rat kidney (adrenalectomized rat), 105,000 g supernatant (cytosol)
T1 sequence (P22199 1-981): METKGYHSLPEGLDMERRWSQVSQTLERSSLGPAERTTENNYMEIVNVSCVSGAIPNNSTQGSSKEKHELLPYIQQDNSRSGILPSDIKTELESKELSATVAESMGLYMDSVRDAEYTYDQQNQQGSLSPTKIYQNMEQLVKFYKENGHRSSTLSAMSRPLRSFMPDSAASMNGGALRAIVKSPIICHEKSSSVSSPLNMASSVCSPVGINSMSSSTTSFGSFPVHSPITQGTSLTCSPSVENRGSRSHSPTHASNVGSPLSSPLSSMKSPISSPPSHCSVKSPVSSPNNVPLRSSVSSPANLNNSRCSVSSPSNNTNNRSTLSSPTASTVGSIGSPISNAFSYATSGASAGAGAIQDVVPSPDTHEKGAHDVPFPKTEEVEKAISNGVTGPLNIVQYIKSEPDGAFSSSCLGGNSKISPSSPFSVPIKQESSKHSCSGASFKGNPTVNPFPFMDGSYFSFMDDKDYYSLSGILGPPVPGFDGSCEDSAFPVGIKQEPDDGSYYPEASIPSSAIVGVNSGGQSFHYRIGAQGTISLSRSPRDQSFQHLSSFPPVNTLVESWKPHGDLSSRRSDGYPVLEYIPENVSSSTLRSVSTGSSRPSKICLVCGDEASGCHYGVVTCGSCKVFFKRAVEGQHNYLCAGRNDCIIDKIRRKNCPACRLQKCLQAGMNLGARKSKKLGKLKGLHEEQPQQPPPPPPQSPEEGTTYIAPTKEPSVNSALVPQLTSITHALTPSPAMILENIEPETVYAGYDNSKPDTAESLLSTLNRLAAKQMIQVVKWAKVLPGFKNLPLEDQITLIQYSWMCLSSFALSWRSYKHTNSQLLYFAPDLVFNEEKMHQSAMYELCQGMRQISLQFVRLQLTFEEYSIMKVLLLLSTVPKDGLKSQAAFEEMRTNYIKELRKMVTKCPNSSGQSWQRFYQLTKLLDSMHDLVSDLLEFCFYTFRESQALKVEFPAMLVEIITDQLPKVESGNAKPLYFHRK
Procedure, shortened: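 Renal soluble fraction (105,000 g supernatant, pH 7.4 Tris/sucrose/molybdate/DTT) from adrenalectomized rats, incubated with 2 nM [3H]aldosterone plus 2 μM RU-486, 4 °C, ~18 h. Bound ligand separated by dextran-coated charcoal, counted by scintillation; nonspecific binding with 2 μM aldosterone. Percent binding inhibition over 0.1–10000 nM test compound.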

Row | SMILES | IC50 [µM]
2 | COc1cc(NC(=O)c2ccc(-c3ccccc3Cl)c(CNCC(F)F)c2)ccc1S(N)(=O)=O [Example 451] | 0.55
3 | COc1cc(NC(=O)c2ccc(-c3cccc(Cl)c3Cl)c(CNCC(F)F)c2)ccc1S(N)(=O)=O [Example 454] | < 10
4 | COc1cc(NC(=O)c2ccc(-c3cc(F)ccc3Cl)c(CNCC(F)F)c2)ccc1S(N)(=O)=O [Example 457] | < 10
5 | COc1cc(NC(=O)c2ccc(-c3ccc(C(F)(F)F)cc3Cl)c(CNCC(F)F)c2)ccc1S(N)(=O)=O [Example 460] | < 10
6 | CCOc1ncccc1-c1ccc(C(=O)Nc2ccc(S(N)(=O)=O)c(OC)c2)cc1CNCC(F)F [Example 463] | < 10
7 | COc1cc(NC(=O)c2ccc(-c3ccccc3C(C)(F)F)c(CNCC(F)F)c2)ccc1S(N)(=O)=O [Example 469] | < 10
8 | COc1cc(NC(=O)c2ccc(-c3ccc(F)cc3C3CC3)c(CNCC(F)F)c2)ccc1S(N)(=O)=O [Example 470] | < 10
9 | COc1cc(NC(=O)c2ccc(-c3ccc(Cl)cc3C(F)(F)F)c(CNCC(F)F)c2)ccc1S(N)(=O)=O [Example 474] | < 10
10 | COc1cc(NC(=O)c2ccc(-c3ccccc3OC(F)(F)C(F)F)c(CNCC(F)F)c2)ccc1S(N)(=O)=O [Example 478] | < 10
11 | CCCOc1ncccc1-c1ccc(C(=O)Nc2ccc(S(N)(=O)=O)c(OC)c2)cc1CNCC(F)F [Example 481] | < 10
12 | COc1cc(NC(=O)c2ccc(-c3ccc(F)cc3C(F)(F)F)c(CNCC(F)F)c2)ccc1S(N)(=O)=O [Example 486] | < 10
13 | COc1cc(C(=O)Nc2ccc(-c3ccccc3Cl)c(CNCC(F)F)c2)ccc1S(N)(=O)=O [Example 488] | < 10
14 | COc1cc(C(=O)Nc2ccc(-c3ccccc3OC(F)(F)F)c(C)c2)ccc1S(N)(=O)=O [Example 499] | 1.2
15 | CCCN(Cc1cc(C(=O)Nc2ccc(S(C)(=O)=O)cc2)ccc1-c1ccccc1OC(F)(F)F)CC1CC1 [Example 500] | 0.19
16 | CCCN(CCC)Cc1cc(C(=O)Nc2ccc(S(C)(=O)=O)cc2)ccc1-c1ccccc1OC(F)(F)F [Example 505] | 0.29
17 | CS(=O)(=O)c1ccc(NC(=O)c2ccc(-c3ccccc3OC(F)(F)F)c(CN3CCC3)c2)cc1 [Example 508] | < 10
18 | CS(=O)(=O)c1ccc(NC(=O)c2ccc(-c3ccccc3OC(F)(F)F)c(CN3CC[C@@H](F)C3)c2)cc1 [Example 510] | 0.28
19 | CS(=O)(=O)c1ccc(NC(=O)c2ccc(-c3ccccc3OC(F)(F)F)c(CNC3CC3)c2)cc1 [Example 513] | 0.7
20 | Cn1nccc1CNCc1cc(C(=O)Nc2ccc(S(C)(=O)=O)cc2)ccc1-c1ccccc1OC(F)(F)F [Example 520] | 2.9

Row | SMILES | IC50 [µM]
21 | CS(=O)(=O)c1ccc(NC(=O)c2ccc(-c3ccccc3OC(F)(F)F)c(CNc3ncccn3)c2)cc1 [Example 526] | 2.2
22 | COc1cc(C(=O)Nc2ccc(-c3ccccc3C(F)(F)F)c(CNCC(F)(F)F)c2)ccc1S(N)(=O)=O [Example 528] | < 10
23 | COc1cc(NC(=O)c2ccc(-c3cccnc3-c3cccnc3)c(C)c2)ccc1S(N)(=O)=O [Example 531] | < 10
24 | COc1cc(NC(=O)c2ccc(-c3cccnc3C3CC3)c(C)c2)ccc1S(N)(=O)=O [Example 533] | 1.6
25 | COc1cc(NC(=O)c2ccc(-c3cccc4cccnc34)c(C)c2)ccc1S(N)(=O)=O [Example 537] | 5.4
26 | COCc1cc(NC(=O)c2ccc(S(N)(=O)=O)c(OC)c2)ccc1-c1cccnc1C1CC1 [Example 545] | < 10
27 | CCOCc1cc(C(=O)Nc2ccc(S(N)(=O)=O)c(OC)c2)ccc1-c1cccnc1OCC [Example 547] | < 10
28 | COc1cc(C(=O)Nc2ccc(-c3ccccc3C(F)(F)F)c(Cc3nccn3C)c2)ccc1S(N)(=O)=O [Example 550] | 0.62
29 | COc1cc(NC(=O)c2ccc(-c3ccccc3OC(F)(F)F)c(N)c2)ccc1S(N)(=O)=O [Example 560] | 0.24
30 | CCN(CC)c1cc(C(=O)Nc2ccc(S(N)(=O)=O)c(OC)c2)ccc1-c1ccccc1OC(F)(F)F [Example 561] | 0.1
31 | COc1cc(NC(=O)c2ccc(-c3ccccc3OC(F)(F)F)c(NCc3nccn3C)c2)ccc1S(N)(=O)=O [Example 577] | < 10
32 | COC(=O)Nc1cc(C(=O)Nc2ccc(S(N)(=O)=O)c(OC)c2)ccc1-c1ccccc1OC(F)(F)F [Example 578] | < 10
33 | CCOC(=O)Nc1cc(C(=O)Nc2ccc(S(N)(=O)=O)c(OC)c2)ccc1-c1ccccc1CC [Example 581] | < 10
34 | COc1cc(NC(=O)c2ccc(-c3ccccc3OC3CC3)c(CO)c2)ccc1S(N)(=O)=O [Example 590] | < 10
35 | COc1ccc(-c2ccc(C(=O)Nc3ccc(S(N)(=O)=O)c(OC)c3)cc2CNCC(F)F)c(C)c1 [Example 592] | < 10
36 | COc1cc(F)ccc1-c1ccc(C(=O)Nc2ccc(S(N)(=O)=O)c(OC)c2)cc1CNCC(F)F [Example 593] | < 10
37 | COc1cccc(NC(=O)c2ccc(-c3ccccc3)c(CN3CCCCC3)c2)c1 [compound 1] | > 10
38 | NS(=O)(=O)c1cccc(NC(=O)c2ccc(-c3ccccc3)c(CN3CCCCC3)c2)c1 [compound 2] | > 10

same assay, conditions: rat renal soluble fraction, [3H] aldosterone 2 nM, in the presence of 2 μM RU-486

Row | SMILES | binding affinities for aldosterone receptor
39 | COc1cccc(NC(=O)c2ccc(-c3ccccc3)c(CN3CCCCC3)c2)c1 [compound 1, reference compound] | very few binding affinities
40 | NS(=O)(=O)c1cccc(NC(=O)c2ccc(-c3ccccc3)c(CN3CCCCC3)c2)c1 [compound 2, reference compound] | very few binding affinities

same assay, conditions: read-out: Inhibition rates (%) in 100 μM

Row | SMILES | inhibition at 100 µM [%]
41 | COc1cccc(NC(=O)c2ccc(-c3ccccc3)c(CN3CCCCC3)c2)c1 [compound 1] | 7
42 | NS(=O)(=O)c1cccc(NC(=O)c2ccc(-c3ccccc3)c(CN3CCCCC3)c2)c1 [compound 2] | 11
